A value given as a limit tells only on which side of the number the result lay.

Broadly, the LOAEL is the lowest tested level that showed an adverse finding. Broadly, the NOAEL is the highest tested level that showed no adverse finding.

In data set [1] the test system is rat. To be noted: Subchronic oral toxicity in rodents, wistar, Gavage/Intubation, dose end: 90 day, group: systemic.
In data set [2] the test system is rat. The following applies: Prenatal developmental toxicity study, sprague dawley, Oral, Gavage/Intubation, dose end: 16 GD, group: maternal.
The test system of data set [3] is rat. To be noted: Subchronic dermal toxicity, sprague dawley, Topical, dose end: 14 week, group: systemic.
The subject of data set [4] is rat. To be noted: Subchronic oral toxicity in rodents, wistar, Gavage/Intubation, dose end: 90 day, group: systemic. The source holds these as a separate data set.
Data set [5] deals with rat. To be noted: Prenatal developmental toxicity study, sprague dawley, Oral, Gavage/Intubation, dose end: 15 GD.
A further data set has as its system rabbit. The following applies: Sub-acute dermal toxicity, new zealand white, Topical, dose end: 21 day, group: systemic.
Data set [6] relates to rat. To be noted: Multigenerational reproductive toxicity study, Sprague-Dawley, Oral, Feed, dose end: 1 generation.
The test system of data set [7] is rat. To be noted: Subchronic inhalation toxicity, other, Nose-Only, dose end: 90 day, group: systemic, systemic / pathology microscopic / nose / [other] + systemic / pathology microscopic / nose / degeneration + systemic / pathology ….
The subject of data set [8] is rat. To be noted: Multigenerational reproductive toxicity study, sprague dawley, Oral, Feed, dose end: 2 generation.
Data set [9] deals with rat. The following applies: Subchronic oral toxicity in rodents, sprague dawley, Feed, dose end: 3 month, group: systemic.
For data set [10], the system named is rat. To be noted: Sub-acute dermal toxicity, other, Topical, dose end: 28 day, group: systemic.
Setting [11] is: systemic / pathology microscopic / pharynx / lesion(s) (nos).
Setting [12] is: systemic / in life observation / clinical signs / salivation + systemic / in life observation / food consumption / food consumption.
[13] abbreviates: systemic / pathology microscopic / bone marrow / hyperplasia.
[14] abbreviates: systemic / pathology microscopic / bone marrow / hyperplasia + systemic / hematology / mean corpuscular (cell) volume (mcv) / mean ….
Setting [15] is: systemic / in life observation / clinical signs / righting ability.
Where [16] appears, read: systemic / in life observation / clinical signs / righting ability + systemic / in life observation / body weight / body weight + systemic….
Where [17] appears, read: group: developmental, developmental / developmental malformation / bone / short supernumerary + developmental / developmental malformation / eye / anophthalmia + ….
The mark [18] stands for this setting: group: maternal, systemic / in life observation / body weight / body weight gain + systemic / in life observation / food consumption / food consumption.
[19] abbreviates: group: maternal, systemic / in life observation / body weight / body weight gain + systemic / in life observation / food consumption / food consumption + ….
[20] abbreviates: systemic / clinical chemistry / glucose / glucose.
[21] abbreviates: systemic / in life observation / clinical signs / desquamation + systemic / in life observation / clinical signs / erythema + systemic / in ….
Setting [22] is: group: offspring, systemic / in life observation / body weight / offspring (pup) weight + systemic / in life observation / clinical signs / reduced activity.
The mark [23] stands for this setting: group: parental, systemic / clinical chemistry / thyroid stimulating hormone (thyrotropin) (tsh) / thyroid stimulating hormone (=thyrotropin) (tsh) + ….
[24] abbreviates: group: parental, systemic / in life observation / clinical signs / nasal discharge + systemic / in life observation / body weight / body weight + systemic / ….
Where [25] appears, read: group: reproductive, reproductive / offspring survival early / dead fetuses / dead fetuses + reproductive / offspring survival early / litter size / litter size….
The mark [26] stands for this setting: group: reproductive, reproductive / reproductive performance / reproductive performance other / NOS + reproductive / reproductive performance / pregnancy index….
The mark [27] stands for this setting: group: offspring, developmental / developmental malformation / trunk / umbilical hernia + developmental / offspring survival late / [other] / [other] + ….
Where [28] appears, read: group: parental, systemic / in life observation / clinical signs / body cold to touch + systemic / in life observation / clinical signs / drooping eyelids (….
[29] abbreviates: group: parental, systemic / pathology microscopic / thyroid gland / colloid content + systemic / pathology microscopic / thyroid gland / hypertrophy + ….
[30] abbreviates: group: reproductive, reproductive / reproductive performance / dystocia / dystocia + reproductive / reproductive performance / postimplantation loss / ….
The mark [31] stands for this setting: systemic / clinical chemistry / cholesterol / cholesterol + systemic / clinical chemistry / phosphorus / phosphorus + systemic / pathology ….
[32] abbreviates: systemic / hematology / leukocyte (wbc) count differential / leukocyte (wbc) + systemic / hematology / neutrophils / neutrophils + systemic….
The mark [33] stands for this setting: systemic / pathology microscopic / thyroid gland / altered colloid + systemic / pathology microscopic / thyroid gland / hypertrophy.

Turning to `CCCCCCCCCCCCN(CCCN)CCCN` [1,3-Propanediamine, N-(3-aminopropyl)-N-dodecyl-], the LOAEL was 90 mg/kg/day with rat [1] (systemic / pathology microscopic / kidney / basophilia + systemic / pathology microscopic / kidney / dilatation), greater than 200 mg/kg/day in the data set with rat [2] (setting [12]), 5 mg/kg/day in the data set with rat [3] (setting [13]) and 10 mg/kg/day with rat [4] (setting [15]). The LEL in the data set with rat [1] (setting [11]) was 5 mg/kg/day; with rat [2] (systemic / in life observation / clinical signs / salivation), 50 mg/kg/day; in the data set on rat [3] (setting [14]) it was 5 mg/kg/day; in the data set on rat [4] (setting [15]) it was 10 mg/kg/day. In addition, the NEL is less than 5 mg/kg/day in the data set with rat [1] (setting [11]), 25 mg/kg/day with rat [2] (setting [12]), less than 5 mg/kg/day in the data set on rat [3] (setting [14]) and 5 mg/kg/day with rat [4] (setting [16]). Also, the NOAEL is no less than 200 mg/kg/day in the data set on rat [2] (setting [12]), less than 5 mg/kg/day with rat [3] (setting [13]) and 5 mg/kg/day in the data set with rat [4] (setting [16]).

Consider `O=S(=O)(C(Cl)(Cl)Cl)C(Cl)(Cl)Cl` [Bis(trichloromethyl)sulfone], for which the LEL in the data set with rat [5] (setting [17]) is 50 mg/kg/day; in the data set on rat [5] (setting [18]), 10 mg/kg/day; in the data set with rabbit (setting [20]), 0.8 mg/kg/day. For the same molecule, the lowest-observed-adverse-effect level (LOAEL) in the data set with rat [5] (setting [17]) is 50 mg/kg/day; with rat [5] (setting [18]), 10 mg/kg/day; in the data set with rabbit (setting [21]) it was 5 mg/kg/day. For the same molecule, the results for the NEL with rat [5] (setting [17]), in the data set on rat [5] (setting [19]) and in the data set with rabbit (setting [20]) were 10 mg/kg/day, 2 mg/kg/day and less than 0.8 mg/kg/day, respectively. In addition, the no observed adverse effect level (NOAEL) was 10 mg/kg/day in the data set on rat [5] (setting [17]), 2 mg/kg/day in the data set with rat [5] (setting [19]) and 2 mg/kg/day in the data set on rabbit (setting [21]).

In the case of `Cc1ccc(S(=O)(=O)C(I)I)cc1` [Diiodomethyl 4-methylphenyl sulfone], the LEL stood at 80 mg/kg/day in the data set on rat [6] (setting [22]); 20 mg/kg/day in the data set on rat [6] (setting [24]); 80 mg/kg/day in the data set with rat [6] (setting [25]); 0.41 ppm in the data set with rat [7]; 10 mg/kg/day with rat [8] (group: offspring, systemic / in life observation / body weight / offspring (pup) weight + developmental / offspring survival late / viability index / …); 2.5 mg/kg/day in the data set on rat [8] (setting [29]). Moreover, the LEL with rat [8] (setting [30]) was 40 mg/kg/day; with rat [9] (systemic / in life observation / clinical signs / scabbing) it was 20 mg/kg/day; in the data set on rat [10] (setting [33]) it was 20 mg/kg/day. In addition, the LOAEL with rat [6] (setting [22]) is greater than 200 mg/kg/day; in the data set with rat [6] (setting [23]) it was greater than 200 mg/kg/day; in the data set on rat [6] (setting [26]), greater than 200 mg/kg/day; with rat [7], greater than 1.74 ppm; with rat [8] (setting [27]), greater than 40 mg/kg/day; in the data set with rat [8] (setting [28]) it was greater than 40 mg/kg/day. Further, the LOAEL in the data set with rat [8] (setting [30]) was greater than 40 mg/kg/day; in the data set on rat [9] (setting [31]), 80 mg/kg/day; with rat [10] (setting [32]) it was greater than 500 mg/kg/day. The NEL is 20 mg/kg/day in the data set on rat [6] (setting [22]); less than 20 mg/kg/day in the data set on rat [6] (setting [24]); 20 mg/kg/day in the data set on rat [6] (setting [25]); 0.0579 ppm in the data set on rat [7]; 2.5 mg/kg/day in the data set on rat [8] (setting [27]); less than 2.5 mg/kg/day with rat [8] (setting [29]). The NEL in the data set with rat [8] (setting [30]) is 10 mg/kg/day; with rat [9] (setting [31]), 5 mg/kg/day; with rat [10] (setting [33]), less than 20 mg/kg/day. For the same molecule, the no observed adverse effect level (NOAEL) in the data set on rat [6] (setting [22]) was no less than 200 mg/kg/day; in the data set on rat [6] (setting [23]) it was no less than 200 mg/kg/day; with rat [6] (setting [26]) it was no less than 200 mg/kg/day; with rat [7], no less than 1.74 ppm; with rat [8] (setting [27]), no less than 40 mg/kg/day; with rat [8] (setting [28]), no less than 40 mg/kg/day. In addition, the NOAEL in the data set with rat [8] (setting [30]) was no less than 40 mg/kg/day; with rat [9] (setting [31]) it was 20 mg/kg/day; with rat [10] (setting [32]), no less than 500 mg/kg/day.

For the origin of these results see EPA's ToxRefDB 2.
